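1) Cells in 96-well plates. 2) Compound, 48 h, 5 concentrations. 3) Linear interpolation between surrounding doses. 4) Unreached endpoint = highest concentration. GI50 = concentration required for 50% inhibition of growth.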 The source made the active and inactive calls. No stated cut-off is given here; in the data, active = GI50 up to about 1.1 µM and inactive = higher. Non-standard residues stand in square brackets, D forms with d. Residues, ends and D or L forms follow the SMILES beside them. ΔPro = O=C(O)[CH]1C=CCN1
Key:
Test in all cases: inhibition of tumour cell growth, NCI panel, 48 h
DU-145 = system: DU-145
NCI-H460 = system: NCI-H460
HOP-62 = system: HOP-62
ACHN = system: ACHN
SF-295 = system: SF-295
A549 = system: A549
HT-29 = system: HT-29
Malme-3M = system: Malme-3M
OVCAR-8 = system: OVCAR-8
T47D = system: T47D
SK-MEL-5 = system: SK-MEL-5
OVCAR-4 = system: OVCAR-4
HCT-116 = system: HCT-116
UACC-62 = system: UACC-62
MDA-MB-435 = system: MDA-MB-435
SK-MEL-28 = system: SK-MEL-28
LOX IMVI = system: LOX IMVI
MDA-MB-231 = system: MDA-MB-231
A498 = system: A498
SF-268 = system: SF-268

SMILES	GI50 (DU-145)	GI50 (NCI-H460)	GI50 (HOP-62)	GI50 (ACHN)	GI50 (SF-295)	GI50 (A549)	GI50 (HT-29)	GI50 (Malme-3M)	GI50 (OVCAR-8)	GI50 (T47D)	GI50 (SK-MEL-5)	GI50 (OVCAR-4)	GI50 (HCT-116)	GI50 (UACC-62)	GI50 (MDA-MB-435)	GI50 (SK-MEL-28)	GI50 (LOX IMVI)	GI50 (MDA-MB-231)	GI50 (A498)	GI50 (SF-268)
O=C(CCc1ccc(O)c(O)c1)NCCc1ccc(O)c(O)c1	> 100 µM (inactive)	> 100 µM (inactive)	> 100 µM (inactive)	> 100 µM (inactive)	> 100 µM (inactive)	> 100 µM (inactive)	> 100 µM (inactive)	> 100 µM (inactive)	18.3 µM (inactive)	> 100 µM (inactive)	> 100 µM (inactive)	18.5 µM (inactive)	42.8 µM (inactive)	> 100 µM (inactive)	17.9 µM (inactive)	> 100 µM (inactive)	39.7 µM (inactive)	25.6 µM (inactive)	> 100 µM (inactive)	> 100 µM (inactive)
Cc1cc2c(cc1Cl)SC(NNC(=O)c1ccccc1)=NS2(=O)=O	> 10 µM (inactive)	> 10 µM (inactive)	> 10 µM (inactive)	> 10 µM (inactive)	> 10 µM (inactive)	> 10 µM (inactive)	> 10 µM (inactive)	> 10 µM (inactive)	> 10 µM (inactive)	> 10 µM (inactive)	> 10 µM (inactive)	> 10 µM (inactive)	> 10 µM (inactive)	> 10 µM (inactive)	> 10 µM (inactive)	> 10 µM (inactive)	> 10 µM (inactive)	> 10 µM (inactive)	> 10 µM (inactive)	> 10 µM (inactive)
O=C(Cc1ccccc1)NNc1nc(NNC(=O)c2ccncc2)nc(Nc2ccc([N+](=O)[O-])cc2)n1	> 10 µM (inactive)	> 10 µM (inactive)	> 10 µM (inactive)	> 10 µM (inactive)	> 10 µM (inactive)	> 10 µM (inactive)	> 10 µM (inactive)	> 10 µM (inactive)	> 10 µM (inactive)	> 10 µM (inactive)	> 10 µM (inactive)	> 10 µM (inactive)	> 10 µM (inactive)	9.38 µM (inactive)	> 10 µM (inactive)	> 10 µM (inactive)	> 10 µM (inactive)	> 10 µM (inactive)	> 10 µM (inactive)	> 10 µM (inactive)
CC(=O)O[C@@H]1[C@H](C(C)C)[C@@H](OC(C)=O)C/C(C)=C/CC[C@]2(C)O[C@@H]12	> 100 µM (inactive)	> 100 µM (inactive)	> 100 µM (inactive)	> 100 µM (inactive)	> 100 µM (inactive)	> 100 µM (inactive)	> 100 µM (inactive)	> 100 µM (inactive)	> 100 µM (inactive)	> 100 µM (inactive)	> 100 µM (inactive)	> 100 µM (inactive)	> 100 µM (inactive)	> 100 µM (inactive)	> 100 µM (inactive)	> 100 µM (inactive)	> 100 µM (inactive)	> 100 µM (inactive)	> 100 µM (inactive)	> 100 µM (inactive)
CC1CCC(=O)C(C(=O)CC2CC(=O)NC(=O)C2)C1 (stereo not given)	> 100 µM (inactive)	> 100 µM (inactive)	> 100 µM (inactive)	> 100 µM (inactive)	> 100 µM (inactive)	> 100 µM (inactive)	> 100 µM (inactive)	> 100 µM (inactive)	> 100 µM (inactive)	> 100 µM (inactive)	> 100 µM (inactive)	> 100 µM (inactive)	> 100 µM (inactive)	> 100 µM (inactive)	> 100 µM (inactive)	> 100 µM (inactive)	> 100 µM (inactive)	> 100 µM (inactive)	> 100 µM (inactive)	> 100 µM (inactive)
Cc1ccc([N+](=O)[O-])cc1S(=O)(=O)Nc1ccc(C2=NN(S(=O)(=O)c3cc([N+](=O)[O-])ccc3C)C(c3ccccc3O)C2)cc1 (stereo not given)	> 100 µM (inactive)	> 100 µM (inactive)	47.5 µM (inactive)	80.4 µM (inactive)	34.4 µM (inactive)	82.2 µM (inactive)	> 100 µM (inactive)	> 100 µM (inactive)	> 100 µM (inactive)	> 100 µM (inactive)	> 100 µM (inactive)	> 100 µM (inactive)	> 100 µM (inactive)	58.5 µM (inactive)	> 100 µM (inactive)	> 100 µM (inactive)	> 100 µM (inactive)	44.6 µM (inactive)	10.4 µM (inactive)	26.5 µM (inactive)
N#Cc1c(Cl)cccc1Oc1ccc(S(=O)(=O)N/C(=N\O)Nc2ccc(Cl)cc2)cc1	18.8 µM (inactive)	17.9 µM (inactive)	17.5 µM (inactive)	15.6 µM (inactive)	17.2 µM (inactive)	16.8 µM (inactive)	17.3 µM (inactive)	19.2 µM (inactive)	18 µM (inactive)	13.2 µM (inactive)	17.2 µM (inactive)	14.8 µM (inactive)	14.2 µM (inactive)	15.5 µM (inactive)	17.9 µM (inactive)	19.9 µM (inactive)	16 µM (inactive)	16.3 µM (inactive)	15.3 µM (inactive)	19.9 µM (inactive)
O=C(O)C1C=CCN1C(=O)C1C=CCN1C(=O)C1C=CCN1 (stereo not given) (H-[ΔPro]-[ΔPro]-[ΔPro]-OH; configuration not given here)	> 100 µM (inactive)	> 100 µM (inactive)	> 100 µM (inactive)	> 100 µM (inactive)	> 100 µM (inactive)	> 100 µM (inactive)	> 100 µM (inactive)	> 100 µM (inactive)	> 100 µM (inactive)	> 100 µM (inactive)	> 100 µM (inactive)	> 100 µM (inactive)	> 100 µM (inactive)	> 100 µM (inactive)	> 100 µM (inactive)	> 100 µM (inactive)	> 100 µM (inactive)	> 100 µM (inactive)	> 100 µM (inactive)	> 100 µM (inactive)
CN(C)CCN1C(=O)c2cccc3cc([N+](=O)[O-])cc(c23)C1=O [MITONAFIDE]	0.286 µM (active)	0.0803 µM (active)	0.146 µM (active)	0.0762 µM (active)	0.209 µM (active)	0.0716 µM (active)	0.301 µM (active)	0.404 µM (active)	0.252 µM (active)	0.601 µM (active)	0.237 µM (active)	1.2 µM (inactive)	0.261 µM (active)	0.247 µM (active)	1.75 µM (inactive)	1.34 µM (inactive)	0.192 µM (active)	1.31 µM (inactive)	0.167 µM (active)	0.324 µM (active)
O=C(CCCCCCC(=O)Nc1cccnc1)NO [PYROXAMIDE]	3.71 µM (inactive)	2.82 µM (inactive)	7.16 µM (inactive)	15.7 µM (inactive)	21.2 µM (inactive)	21.7 µM (inactive)	3.14 µM (inactive)	0.902 µM (active)	1.78 µM (inactive)	1.47 µM (inactive)	1.21 µM (inactive)	10.4 µM (inactive)	3.54 µM (inactive)	3.34 µM (inactive)	2.79 µM (inactive)	4.4 µM (inactive)	7.29 µM (inactive)	> 100 µM (inactive)	11 µM (inactive)	4.26 µM (inactive)
